The results in this text go back to US4933336A, “Thiadiazinone, oxadiazinone and triazinone derivatives, and their use for treating acute or chronic heart disease” (Laboratoires Sobio S.A., priority 1987, dated 1990).

Assay [1] concerns conscious instrumented Dog. Description: Cardiotonic activity in the conscious instrumented Dog. Format: in vivo, dog (male Beagle). The conditions noted are these: Canis lupus familiaris, po; for change in vivo at 0.3 mg/kg: 0.30 mg/kg p.o.; for change in vivo at 0.03 mg/kg: 0.03 mg/kg p.o.; for change in vivo at 10 mg/kg: 10.00 mg/kg p.o. The procedure:
Cardiotonic activity in the conscious instrumented Dog
Male Beagle dogs, at least 2 years old, weighing 12 to 18 kg were anaesthetised with pentobarbital sodium (30 mg/kg i.v.). Respiration was maintained by a Harward pump, model 613a. The heart was exposed through a left thoracotomy and a pericardial cardle was formed. A high fidelity micromanometer (Koenigsberg P5 -P7) was inserted into left venitricular lumen through a stab incision at the apex. Wires were exteriorised to the back of the animals, placed into a size adapted jacket, and the chest closed. The experiments were conducted on the conscious dogs, 1 or 2 weeks after the surgery, when the animals had completely recovered.
Measured parameters were : first derivative of left ventricular pressure, (dP/dt, mmHg/sec); heart rate (HR, beats/min.). A control period recording of 90 min. was made with the dogs placed in a quiet room, the recordings being made outside. Compounds to be tested were administered orally in gelatin capsules and the parameters measured for 5 hrs. at least.
Results were expressed as the percentage of the maximum±SEM.

In assay [2] the test system is Canine cardiac myofibrillar Ca++-dependent Mg++ ATPase. Description: Measurement of myofibrillar Ca++-dependent Mg++ATPase activity (Ca++ sensitivity and maximal activity). In kind it is biochemical, canine (dog). The conditions noted are these: pH 7.0, 21° C. The method, then:
1. Measurement of myofibrillar Ca++-dependent Mg++ATPase activity
the effect on myofibrillar Ca++sensitivity and on maximal activity of myofibrillar Ca++-dependent Mg++-ATPase was determined on canine cardiac myofibrils.
(a) Contractile protein preparation
Cardiac myofibrils free of membrane contaminants were prepared from left ventricular tissue of dog hearts using a modification of the method described by SOLARO et al, Biochem. Biophys. Acta, 245, 259-262, (1971). Before centrifugration, the heart homogenate was filtered through gauze.
After Triton X-100 treatments, the myofibrillar fraction was washed once by resuspension and centrifugation in 10 volumes of 1 mM EGTA, […], 30 mM imidazole, 2 mM MgCl2, pH 7.0. The pellet was then washed three times in 10 volumes of the same buffer without EGTA. Before the last centrifugation, the suspension of myofibrils was filtered through a stainless steel sieve with 0.25 mm meshes.
Myofibrils were kept in pellet overnight. Before use, the pellet was suspended in a small amount of buffer, the protein concentration was determined by the method of BRADFORD M., Anal. Biochem., 1976, 72, 248 and adjusted in order to have a concentration between 6 and 7 mg/ml.
(b) Myofibrillar ATPase activity
Ca++-dependent myfibrillar ATPase activity was determined at 21° C., pH 7.0, by measuring the rate of release of inorganic phosphate. All assays were performed within 24 hrs. of final purification, using the method described by SOLARO and RUEGG, CIRC. RES., 51, 290-4, (1982). Reaction mixtures (4 ml) containing 0.6-0.7 mg/ml myofibrillar protein, 80 mM KCl, 20 mM imidazole, 3 mM […], 1 mM EGTA, the desired amount of CaCl2, and the indicated concentration of drug or appropriate vehicle were preincubated for 6 min. prior to assay. The amount of CaCl2 was varied between 0 and 0.9 mM and the pCA (-log free Ca++) computed using 2.514×10^6 M^-1 as the apparent affinity of Ca++for EGTA at pH 7.0.
Reactions were initiated by the addition of Na2 ATP to final concentration of 2 mM. After an incubation period of 12 min., reactions were quenched by the addition of an equal volume of ice-cold 10% trichloroacetic acid. The protein was pelleted by centrifugation (2000 g, 15 min.) and Pi was assayed in the supernatant fraction using a modification of the method described by LANZETTA et al, Anal. Biochem., 100, 95-97, (1979).
The following solutions were prepared:
(1) 3.7% ammonium heptamolybdate in 0.12N H2 SO4
(2) 0.074% malachite green oxalate in 1% polyvinylic alcohol.
the colour reagent was prepared by mixing an equal volume of solution (1) and (2) 15 min. before the assay. For the assay, 1700 μl of 1% H2 SO4 and 1 ml of colour reagent were added to 100 μl of sample. Colour development occurred at room temperature for 30 min. and was quenched by the addition of 200 μl of 1M tri-potassium citrate. The absorbance was measured at 620 millimicrons.
The effect of each compound, tested at the indicated concentration, on the relation between pCa and percent activation was determined taking 100% for the maximum ATPase activity obtained with vehicle alone. The effect on Ca++ sensitivity was quantified by measuring the shift of the pCa giving 50% of the maximal control ATPase activity.
The effect on maximal ATPase activity was expressed as the percent change of ATPase activity for pCa=5.47.

The mark [3] stands for this setting: read-out: H.R. (heart rate), percentage of the maximum ± SEM.
[4] abbreviates: read-out: dP/dt Max (first derivative of left ventricular pressure), percentage of the maximum ± SEM.

Read-outs that look alike come from different tables or passages of the source.

In the case of `CC1SC(=O)NN=C1c1ccc2c(c1)C1(SCCS1)C(=O)N2` (stereo not shown) [Example 13, 5'-(3,6-Dihydro-6-methyl-2-oxo-2H-1,3,4 thiadiazin-5-yl) -spiro 1,3-dithiolane-2,3'-3H indol-2(1'H)-one], the change in vivo at 0.3 mg/kg turned out to be 15% in assay [1] (setting [3]) and 43% in assay [1] (setting [4]). Besides, in assay [2] (3 × 10^-5 molar), the “Max ATPase activity (%) (percent change of ATPase activity for pCa=5.47)” value is given as -11 ± 5%. Also, the “Ca2+ sensitivity p CA50 (shift of the pCa giving 50% of the maximal control ATPase activity)” value in assay [2] (3 × 10^-5 molar) is 0.58 ± 0.04.
For `CC1(C)C(=O)Nc2ccc(C3=NNC(=O)SC3)cc21` [Example 2, 1,3-Dihydro-5-(3,6-dihydro-2-oxo-2H-1,3,4-thiadiazin-5-yl)-3,3,-dimethyl-2H-indol-2-one], in assay [2] (20 × 10^-5 molar), the “Max ATPase activity (%) (percent change of ATPase activity for pCa=5.47)” value is recorded as -9 ± 2% and the “Ca2+ sensitivity p CA50 (shift of the pCa giving 50% of the maximal control ATPase activity)” value was found to be 0.16 ± 0.07.
In the case of `CC1NC(=O)NN=C1c1ccc2c(c1)C(C)(C)C(=O)N2` (stereo not shown) [Example 37, 1,3-Dihydro-5-(1,2,3,6-tetrahydro-6-methyl-2-oxo-1,3,4-triazin-5-yl)-3,3-dimethyl-2H-indol-2-one], the values for the change in vivo at 0.03 mg/kg in assay [1] (setting [3]) and in assay [1] (setting [4]) were 24% and 85%, respectively.
`CC1SC(=O)NN=C1c1ccc2c(c1)C1(CCCS1)C(=O)N2` (stereo not shown) [Example 21, 5'-(3,6-Dihydro-6-methyl-2-oxo-2H-1,3,4-thiadiazin-5-yl) -spiro-[thiolane-2,3'-[3H]-indol]-2'(1'H)-one]: in assay [1] (setting [3]), the change in vivo at 0.3 mg/kg worked out at 9%. Moreover, the change in vivo at 0.3 mg/kg in assay [1] (setting [4]) is 42%. In assay [2] (1 × 10^-5 molar), the “Max ATPase activity (%) (percent change of ATPase activity for pCa=5.47)” value is reported as -7 ± 2% and the “Ca2+ sensitivity p CA50 (shift of the pCa giving 50% of the maximal control ATPase activity)” value is reported as 0.46 ± 0.04.
As for `CC1SC(=O)NN=C1c1ccc2c(c1)C1(CCCC1)C(=O)N2` (stereo not shown) [Example 6, 5'-(3,6-Dihydro-6-methyl-2-oxo-2H-1,3,4-thiadiazin-5-yl)-spiro[cyclopentane-1,3'-[3H]-indol]-2'(1'H)one], the results for the change in vivo at 0.3 mg/kg in assay [1] (setting [3]) and in assay [1] (setting [4]) were 7% and 33%, respectively.
In the case of `CC1SC(=O)NN=C1c1ccc2c(c1)C1(SCCCS1)C(=O)N2` (stereo not shown) [Example 14, 5'-(3,6-Dihydro-6-methyl-2-oxo-2H-1,3,4-thiadiazin-5-yl) -spiro[1,3-dithiane-2,3'-[3H]indol]-2(1'H)-one], in assay [1] (setting [3]), the change in vivo at 0.3 mg/kg is 22%. Moreover, in assay [1] (setting [4]), the change in vivo at 0.3 mg/kg was 30%. In assay [2] (3 × 10^-5 molar), the “Max ATPase activity (%) (percent change of ATPase activity for pCa=5.47)” value is given as “+4 ± 1%” and the “Ca2+ sensitivity p CA50 (shift of the pCa giving 50% of the maximal control ATPase activity)” value is recorded as 0.71 ± 0.09.
As for `CSC1(C)C(=O)Nc2ccc(C3=NNC(=O)SC3C)cc21` (stereo not shown) [Example 5, 1,3-Dihydro-5-(3,6-dihydro-6-methyl-2-oxo-2H-1,3,4-thiadiazin-5-yl)-3-methyl-3-methylthio-2H-indol-2-one], the change in vivo at 0.03 mg/kg in assay [1] (setting [3]) came to 16%. In addition, the change in vivo at 0.03 mg/kg in assay [1] (setting [4]) came out at 45%. For the same molecule, in assay [2] (20 × 10^-5 molar), the “Max ATPase activity (%) (percent change of ATPase activity for pCa=5.47)” value is -8 ± 1% and the “Ca2+ sensitivity p CA50 (shift of the pCa giving 50% of the maximal control ATPase activity)” value is reported as 0.40 ± 0.08.
Turning to `CC1C(=O)Nc2ccc(C3=NNC(=O)SC3)cc21` (stereo not shown) [Example 4, 1,3-Dihydro-5-(3,6-dihydro-2-oxo-2H-1,3,4-thiadiazin-5-yl)-3-methyl-2H-indol-2-one], in assay [2] (20 × 10^-5 molar), the “Max ATPase activity (%) (percent change of ATPase activity for pCa=5.47)” value is on record as -6 ± 2% and the “Ca2+ sensitivity p CA50 (shift of the pCa giving 50% of the maximal control ATPase activity)” value is listed as 0.15 ± 0.03.
As for `CSC1(C)C(=O)N(C(C)=O)c2ccc(C3=NNC(=O)SC3)cc21` (stereo not shown) [Example 9, 1-Acetyl-1,3-dihydro-5-(3,6-dihydro-2-oxo-2H-1,3,4-thiadiazin-5-yl)-3-methyl-3-methylthio-2H-indol-2-one], the change in vivo at 10 mg/kg in assay [1] (setting [3]) amounted to 16%; in assay [1] (setting [4]), 68%.
As for `CC1SC(=O)NN=C1c1ccc2c(c1)C1(CC1)C(=O)N2` (stereo not shown) [Example 16, 5'-(3,6-Dihydro-6-methyl-2-oxo-2H-1,3,4 thiadiazin-5-yl) -spiro[cyclopropane-1,3'-[3H]indol]-2'-(1'H)-one], the change in vivo at 0.03 mg/kg in assay [1] (setting [3]) is 21%; in assay [1] (setting [4]), 105%.
With `CC1SC(=O)NN=C1c1ccc2c(c1)C(C)(C)C(=O)N2C(=O)Oc1ccccc1` (stereo not shown) [Example 40, Phenyl 2,3-dihydro-5-(3,6-dihydro-6-methyl-2-oxo-2H-1,3,4-thiadiazin-5-yl)-3,3-dimethyl-2-oxo-1H-indole-1-carboxylate], in assay [2] (3 × 10^-5 molar), the “Max ATPase activity (%) (percent change of ATPase activity for pCa=5.47)” value was “+2 ± 2%” and the “Ca2+ sensitivity p CA50 (shift of the pCa giving 50% of the maximal control ATPase activity)” value is recorded as 0.15 ± 0.01.
Take `CC1SC(=O)NN=C1c1ccc2c(c1)C(=O)C(=O)N2` (stereo not shown) [Example 12, 5-(3,6-Dihydro-6-methyl-2-oxo-2H-1,3,4-thiadiazin-5-yl)-1H-indole-2,3-dione]: the change in vivo at 0.3 mg/kg in assay [1] (setting [3]) came out at 10%; in assay [1] (setting [4]) it was 51%.
On to `CC1SC(=O)NN=C1c1ccc2c(c1)C(C)(C)C(=O)N2C(=O)c1ccccc1` (stereo not shown) [Example 22, 1-Benzoyl-1,3-dihydro-5-(3,6-dihydro-6-methyl-2-oxo-2H-1,3,4-thiadiazin-5-yl)-3,3-dimethyl-2H-indol-2-one], for which the change in vivo at 0.03 mg/kg in assay [1] (setting [3]) is 14%; in assay [1] (setting [4]) it was 56%.
Turning to `CSC1(SC)C(=O)Nc2ccc(C3=NNC(=O)SC3C)cc21` (stereo not shown) [Example 15, 1,3-Dihydro-5-(3,6-dihydro-6-methyl-2-oxo-2H-1,3,4-thiadiazin-5-yl)-3.3-di(methylthio)-2H-indol-2 one], in assay [2] (3 × 10^-5 molar), the “Max ATPase activity (%) (percent change of ATPase activity for pCa=5.47)” value is given as -4 ± 1% and the “Ca2+ sensitivity p CA50 (shift of the pCa giving 50% of the maximal control ATPase activity)” value was found to be 0.37 ± 0.11.
Turning to `CSC1C(=O)Nc2ccc(C3=NNC(=O)SC3C)cc21` (stereo not shown) [Example 10, 1,3-Dihydro-5-(3,6-dihydro-6-methyl-2-oxo-2H-1,3,4-thiadiazin-5-yl)-3-methylthio-2H-indol-2-one], in assay [2] (3 × 10^-5 molar), the “Max ATPase activity (%) (percent change of ATPase activity for pCa=5.47)” value is listed as -9 ± 5% and the “Ca2+ sensitivity p CA50 (shift of the pCa giving 50% of the maximal control ATPase activity)” value is reported as 0.36 ± 0.02.
In the case of `CC1SC(=O)NN=C1c1ccc2c(c1)C(C)(C)C(=O)N2C(=O)c1ccc(N)cc1` (stereo not shown) [Example 42, 1,3-Dihydro-5-(3,6-dihydro-6-methyl-2-oxo-2H-1,3,4-thiadiazin-5-yl)-3,3-dimethyl-1-[(4-aminophenyl)carbonyl]-2H-indol-2-one], in assay [2] (3 × 10^-5 molar), the “Max ATPase activity (%) (percent change of ATPase activity for pCa=5.47)” value is on record as -9 ± 2% and the “Ca2+ sensitivity p CA50 (shift of the pCa giving 50% of the maximal control ATPase activity)” value was found to be 0.17 ± 0.03.
